Test results from patent US12226405B2, “Compounds and compositions for inhibiting the activity of HIF2-alpha and their methods of use” (Novartis AG, priority 2020, dated 2025).

Tests used:
[1] = tested on: HIF2α-dependent transcription in 786-O-HRE-Luc cells; assay: In vitro cellular hypoxia response element (HRE) reporter gene assay (RGA) for HIF2α; assay type: cell-based, human; details: Homo sapiens, 24 hours incubation
Description: (§1) Stock solutions of compounds were prepared at a concentration of 10 mM in DMSO and stored at 4° C. Where necessary to afford a full dose-response curve, the stock solutions were pre-diluted in DMSO to 1,000-fold the desired reduced start concentration. On the day after cell seeding, eleven 2-fold serial dilutions of each compound were dispensed directly into the cell assay plates using either HP 300D non-contact Digital Dispenser (TECAN) or a ATS100 acoustic dispenser (EDC Biosystems).
The ability of compounds to inhibit HIF2α- and HIF1α-dependent transcription was assessed in 786-O-HRE-Luc and RCC4-HRE-Luc cells, respectively. The putative unselective inhibition of firefly luciferase activity or expression was assessed in 786-O-UB6-Luc and RCC4-UB6-Luc cells, respectively. The reporter lines were generated as follows: 786-O (RRID: CVCL_1051) and RCC4 (RRID: CVCL_0498) clear cell renal carcinoma cell lines were obtained from ATCC and Celeste Simon (University of Pennsylvania), respectively. Either cell line was transduced with a lentiviral vector in which the expression of a PEST-destabilized version of firefly-luciferase is under the control of either a minimal promoter coupled to four copies of a minimal hypoxia response element (HRE) sequence (pLenti 4×HRE Luc PEST), or a promoter from the house-keeping UBC gene (pLenti UB6 Luc PEST). In short, for the construction of the pLenti 4×HRE Luc PEST vector, 4×HRE DNA oligonucleotides were synthesized, annealed and cloned into pGL4.27 plasmid vector (Promega) predigested with NheI and HindIII restriction enzymes. The sequence of the two DNA oligonucleotides was as follows: NheI 4×HRE HindIII FWD: […] (SEQ ID NO: 8); NheI 4×HRE HindIII REV […] (SEQ ID NO: 9). The 4×HRE Luc PEST fragment was then PCRed from this plasmid with restriction enzyme sites NheI and XhoI at the two ends, and inserted into pLenti6/BLOCK iT DEST (Thermo Fisher Scientific) predigested with NheI and XhoI restriction enzymes. For the construction of the pLenti UB6 Luc PEST vector, the Luc PEST sequence was PCRed from pGL4.27 (Promega) using EcoRV and XhoI restriction enzymes at the two ends, and inserted into pLenti6/UBC/V5/DEST (Thermo Fisher Scientific) predigested with the same enzymes. 786-O and RCC4 cells (300,000 per well of a 6 well plate) were infected in the presence of 10 μg/ml polybrene with lentivirus harvested two days after transfection of HEK293-FT (ThermoFisher Scientific #R70007) cells (80% confluent in a 100 cm^2 dish) with a mix of 1.5 ml OptiMEM (ThermoFisher Scientific #31985062) containing 3 μg of the desired plasmids and 9 μl of ViralPower Packaging mix (ThermoFisher Scientific #K497500), and 1.5 ml OptiMEM containing 36 μl Lipofectamine 2000 (ThermoFisher Scientific #11668019). Successfully infected cells were selected using blasticidin (Gibco #A11139-03) at a final concentration of 5 μg/ml. The resulting stable cell lines were named 786-O pLenti 4×HRE Luc PEST (short: 786-O-HRE-Luc), 786-O pLenti UB6 Luc PEST (short: 786-O-UB6-Luc), RCC4 pLenti 4×HRE Luc PEST (short: RCC4-HRE-Luc) and RCC4 pLenti UB6 Luc PEST (short: RCC4-UB6-Luc). All 4 cell lines were maintained in growth medium composed of DMEM (GIBCO #11995-065), 2 mM L-Glutamine (BioConcept #5-10K50-H), 10% fetal calf serum (Gibco #A31608-01), 1× Penicillin/Streptomycin (BioConcept #4-01F00-H), 1 mM Sodium pyruvate (BioConcept #5-60F00-H) and 5 μg/ml blasticidin (Gibco #A11139-03) at 37° C. in a humidified 5% CO2 incubator.
For the reporter gene assay, the individual cell lines were seeded at 2,500 cells/20 μL/well into white-wall, clear-bottom 384-well plates (Greiner #781098) and incubated over night at 37° C. prior to addition of serial compound dilutions as described above. […]

[2] = tested on: HIF2α-regulated expression of the endogenous target gene hEGLN3 in 786-O cells; assay: Cellular iScript assay for HIF2α (quantitative RT-PCR of hEGLN3); assay type: cell-based, human; details: Homo sapiens, 786-0, 48 hours incubation
Description: as §1
Compound-mediated modulation of the HIF2α-regulated expression of the endogenous target gene hEGLN3 (OMIM: 606426), as well as beta-actin (OMIM: 102630) as a house-keeping control, was assess in 786-O cells (RRID CVCL_1051) using a quantitative RT-PCR approach. In short, 786-O cells were maintained in growth medium composed of DMEM (GIBCO #11995-065), 2 mM L-Glutamine (BioConcept #5-10K50-H), 1× Penicillin/Streptomycin (BioConcept #4-01F00-H), 10% fetal calf serum (Gibco #A31608-01), 1 mM Sodium pyruvate (BioConcept #5-60F00-H). Cells were seeded at 1,000 cells/20 μL/well into white-wall, clear-bottom 384-well plates (Greiner #781098) and incubated over night at 37° C. prior to addition of serial compound dilutions as described above. Following incubation for 48 hours at 37° C., medium supernatant was discarded and the plate blotted dry by inverting on a tissue. The same procedure was repeated following one wash with 20 μL phosphate-buffered saline. Following addition of 25 μL/well iScript sample preparation reagent (BioRad #170-8899) using a 16-channel Matrix pipette, the plate was incubated for 2 min at room temperature. 20 μL lysate supernatant was then removed and transferred to a new 384 well plate (Costar #3656) and diluted 1:3 by adding 5 μL of the lysate to 10 μL H2O using a Bravo liquid handler (Agilent). 2 μL of the diluted lysate was added to the 8 μL of a mastermix containing 5 μL iTaq Universal Probes One-step kit (BioRad #172-5141), 0.25 μL iScript reverse transcription supermix (BioRad #1708840), 0.25 μL 40×HEX-ZEN-labeled TaqMan probe for beta-actin (IDT #Hs.PT.39a.22214847: Probe 5′ HEX-TCA TCC ATG/ZEN/GTG AGC TGG CGG-3′ (SEQ ID NO: 2) Iowa Black FQ, Primer 1: ACA GAG CCT CGC CTT TG (SEQ ID NO: 3); Primer 2: CCT TGC ACA TGC CGG (SEQ ID NO: 4) AG), 0.25 μL, 40×FAM-ZEN-labeled TaqMan probe for hEGLN3 (IDT #Hs.PT.58.189348: Probe 5′ 6-FAM-TTT GGC TTC/ZEN/TGC CCT TTC TTC AGC-3′ (SEQ ID NO: 5) Iowa Black FQ, Primer 1: CACGGTCAGTCTTCAGTGAG (SEQ ID NO: 6); Primer 2: CGCAACCAGATATGCTATGACT (SEQ ID NO: 7)), 2.25 μL RNase-free water, prelaid in a 384 well plate (ABI #4309849) using a 16-channel Matrix pipette. The plate was sealed with a PCR-compatible optical film (MicroAmp, ABI #4360954) and centrifuged (1500 rpm, 5 min, +4° C.) to collect all reagents in the bottom of the well and to remove bubbles. The plate content was amplified on a 7900HT thermal cycler (ABI) using the following conditions: Step 1: 50° C. for 10 min, Step 2: 95° C. for 3 min, Step 3 (40×): 95° C. for 15 s, 60° C. for 1 min. ROX (reaction volume 10 μL) was used as a passive reference. Data were collected with manual adjustment of the Ct threshold (beta-actin: 0.046, hEGLN3: 0.06) and were analyzed using the 2^(−ΔΔCt) method. Thus, for each sample, the following values were calculated: 2^(−Ct)a for beta-actin, 2^(−Ct)e for EGLN3, and 2^(−ΔCt) calculated as (2^(−Ct)e/2^(−Ct)a). The mean 2^(−ΔCt) as well as the corresponding standard deviation was calculated for each sample. Taking the DMSO-treated sample as a reference, the 2^(−ΔΔCt) for each sample was calculated as follows: 2^(−ΔΔCt)=2^(−ΔCt)sample/(2^(−ΔCt)DMSO). After calculating differential expression as 2^(−ΔΔCt) for each sample, it was then expressed as a percentage (×100) to obtain a dose-response curve in % of DMSO control and IC50s were calculated using a four-parametric fit model.

[3] = target: HIF2α PAS-B domain (236-350, biotinylated on the N-terminus) (Homo sapiens (Human), UniProt Q99814)
Sequence of HIF2α PAS-B domain (236-350, biotinylated on the N-terminus) (Q99814 236-350): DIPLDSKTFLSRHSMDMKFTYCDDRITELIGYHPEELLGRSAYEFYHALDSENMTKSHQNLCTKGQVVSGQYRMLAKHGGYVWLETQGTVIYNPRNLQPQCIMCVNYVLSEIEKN
Description: The assay buffer contained 50 mM Tris-HCl pH7 (Sigma), 20 mM NaCl (Fluka), 0.02% BSA (Sigma), 0.005% Triton X-100 (Pierce) and 1 mM DTT (Fluka). After a 30 min incubation period, 5 μL Streptavidin PVT SPA Beads (Perkin Elmer) at 1.2 mg/mL, diluted in the buffer, were added.

| Structure (SMILES) | IC50 [1] | IC50 [2] | IC50 [3] |
| --- | --- | --- | --- |
| N#CC1=CN2C[C@@]3(CCc4c3ccc(Br)c4F)N=C2C(OC(F)F)=C1 [Example 4, (S)-5′-bromo-8-(difluoromethoxy)-4′-fluoro-2′,3′-dihydro-3H-spiro[imidazo[1,2-a]pyridine-2,1′-indene]-6-carbonitrile] | 699 nM | 155 nM | 9 nM |
| FCOC1=CC(C(F)(F)F)=CN2C[C@@]3(CCc4c3ccc(Br)c4F)N=C12 [Example 5, (5)-5′-bromo-4′-fluoro-8-(fluoromethoxy)-6-(trifluoromethyl)-2′,3′-dihydro-3H-spiro[imidazo[1,2-a]pyridine-2,1′-indene]] | 328 nM | 138 nM | 9 nM |
| Fc1c(Br)ccc2c1CCC[C@@]21CN2C=C(C(F)(F)F)C=C(OC(F)F)C2=N1 [Example 7, (S)-6′-bromo-8-(difluoromethoxy)-5′-fluoro-6-(trifluoromethyl)-3′,4′-dihydro-2′H,3H-spiro[imidazo[1,2-a]pyridine-2,1′-naphthalene]] | 82 nM | 32 nM | ≤ 3 nM |
| O=C1CC[C@@]2(CN3C=C(C(F)(F)F)C=C(OC(F)F)C3=N2)c2ccc(Br)c(F)c21 [Example 8, (S)-6′-bromo-8-(difluoromethoxy)-5′-fluoro-6-(trifluoromethyl)-2′H,3H-spiro[imidazo[1,2-a]pyridine-2,1′-naphthalen]-4′(3′H)-one] | 271 nM | 198 nM | 14 nM |
| O=C1c2c(ccc(Br)c2F)[C@@]2(C[C@H]1F)CN1C=C(C(F)(F)F)C=C(OC(F)F)C1=N2 [Example 9, (1′S)-6′-bromo-8-(difluoromethoxy)-3′,5′-difluoro-6-(trifluoromethyl)-2′H,3H-spiro[imidazo[1,2-a]pyridine-2,1′-naphthalen]-4′(3H′)-one] | 2210 nM | 173 nM | 15 nM |
| O[C@H]1c2c(ccc(Br)c2F)[C@@]2(C[C@H]1F)CN1C=C(C(F)(F)F)C=C(OC(F)F)C1=N2 [Example 10, (1′S,3′R,4'S)-6′-bromo-8-(difluoromethoxy)-3′,5′-difluoro-6-(trifluoromethyl)-3′,4′-dihydro-2′H,3H-spiro[imidazo[1,2-a]pyridine-2,1′-naphthalen]-4′-ol] | 207 nM | 77 nM | 21 nM |
| FC(F)OC1=CC(C(F)(F)F)=CN2C[C@@]3(CCCc4cc(Br)ccc43)N=C12 [Example 11, (S)-6′-bromo-8-(difluoromethoxy)-6-(trifluoromethyl)-3′,4′-dihydro-2′H,3H-spiro[imidazo[1,2-a]pyridine-2,1′-naphthalene]] | 89 nM | 33 nM | ≤ 3 nM |
| FC(F)OC1=CC(C(F)(F)F)=CN2C[C@@]3(CCCc4ccccc43)N=C12 [Example 12, (S)-8-(difluoromethoxy)-6-(trifluoromethyl)-3′,4′-dihydro-2′H,3H-spiro[imidazo[1,2-a]pyridine-2,1′-naphthalene]] | 250 nM | 59 nM | 8 nM |
| N#CC1=CN2C[C@@]3(CCCc4c3ccc(Br)c4F)N=C2C(OC(F)F)=C1 [Example 13, (S)-6′-bromo-8-(difluoromethoxy)-5′-fluoro-3′,4′-dihydro-2′H,3H-spiro[imidazo[1,2-a]pyridine-2,1′-naphthalene]-6-carbonitrile] | 113 nM | 42 nM | 5 nM |
| Fc1c(Br)ccc2c1C(F)(F)CC[C@@]21CN2C=C(C(F)(F)F)C=C(OC(F)F)C2=N1 [Example 14, (S)-6′-bromo-8-(difluoromethoxy)-4′,4′,5′-trifluoro-6-(trifluoromethyl)-3′,4′-dihydro-2′H,3H-spiro[imidazo[1,2-a]pyridine-2,1′-naphthalene]] | 146 nM | 57 nM | 9 nM |
